Measured values published in the supplement of paper PMC10307832.

Tests used:
Experiment in all cases: relative viability (nuclei count vs DMSO), 5 days (fraction); higher = more cells survive
[1] = test system: SK-LU-1
Summary of the method: (§1)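 Lung cancer cell lines in 1536-well plates were dosed by pin tool the day after seeding, either with one drug alone or with a fixed anchor-drug dose plus five library-drug doses (not always all listed) in √10 steps. After 5 days, cells were fixed and their nuclei stained in one step (final 0.05% Triton X-100, 1% formaldehyde, 1 ug/ml Hoechst), then counted on 4× images. Relative viability is the nuclei count in treated wells divided by that in vehicle wells. Values are medians of duplicate plates.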

[2] = test system: NCI-H2085
Summary of the method: as §1

[3] = test system: HCC-366
Summary of the method: as §1

[4] = test system: NCI-H1563
Summary of the method: as §1

[5] = test system: NCI-H838
Summary of the method: as §1

[6] = test system: BEN
Summary of the method: as §1

[7] = test system: NCI-H1793
Summary of the method: as §1

[8] = test system: NCI-H1355
Summary of the method: as §1

[9] = test system: NCI-H358
Summary of the method: as §1

[10] = test system: NCI-H1437
Summary of the method: as §1

[11] = test system: NCI-H1650
Summary of the method: as §1

[12] = test system: COR-L23
Summary of the method: as §1

[13] = test system: LU99A
Summary of the method: as §1

[14] = test system: NCI-H2023
Summary of the method: as §1

[15] = test system: NCI-H1651
Summary of the method: as §1

[16] = test system: NCI-H460
Summary of the method: as §1

[17] = test system: NCI-H1975
Summary of the method: as §1

[18] = test system: NCI-H1734
Summary of the method: as §1

[19] = test system: CAL-12T
Summary of the method: as §1

[20] = test system: LOU-NH91
Summary of the method: as §1

[21] = test system: NCI-H441
Summary of the method: as §1

Structure (SMILES): CCN(CC)CCCCNc1ncc2cc(-c3cc(OC)cc(OC)c3)c(NC(=O)NC(C)(C)C)nc2n1 + CS(=O)(=O)CCNCc1ccc(-c2ccc3ncnc(Nc4ccc(OCc5cccc(F)c5)c(Cl)c4)c3c2)o1 [Lapatinib] (partner 2 µM)
- relative viability ([1]; first compound 0.01 µM): 0.985
- relative viability ([1]; first compound 0.03162 µM): 0.975
- relative viability ([1]; first compound 0.1 µM): 0.947
- relative viability ([1]; first compound 0.3162 µM): 1.2
- relative viability ([1]; first compound 1 µM): 0.638
- relative viability ([2]; first compound 0.01 µM): 0.791
- relative viability ([2]; first compound 0.03162 µM): 0.691
- relative viability ([2]; first compound 0.1 µM): 0.828
- relative viability ([2]; first compound 0.3162 µM): 0.85
- relative viability ([2]; first compound 1 µM): 0.68
- relative viability ([3]; first compound 0.01 µM): 1.05
- relative viability ([3]; first compound 0.03162 µM): 1.07
- relative viability ([3]; first compound 0.1 µM): 1.73
- relative viability ([3]; first compound 0.3162 µM): 1.27
- relative viability ([3]; first compound 1 µM): 1.06
- relative viability ([4]; first compound 0.01 µM): 0.884
- relative viability ([4]; first compound 0.03162 µM): 0.895
- relative viability ([4]; first compound 0.1 µM): 0.849
- relative viability ([4]; first compound 0.3162 µM): 0.792
- relative viability ([4]; first compound 1 µM): 0.621
- relative viability ([5]; first compound 0.01 µM): 0.865
- relative viability ([5]; first compound 0.03162 µM): 0.993
- relative viability ([5]; first compound 0.1 µM): 1.2
- relative viability ([5]; first compound 0.3162 µM): 0.969
- relative viability ([5]; first compound 1 µM): 0.563
- relative viability ([6]; first compound 0.01 µM): 0.76
- relative viability ([6]; first compound 0.03162 µM): 0.539
- relative viability ([6]; first compound 0.1 µM): 0.767
- relative viability ([6]; first compound 0.3162 µM): 0.835
- relative viability ([6]; first compound 1 µM): 0.651
- relative viability ([7]; first compound 0.01 µM): 0.623
- relative viability ([7]; first compound 0.1 µM): 1.03
- relative viability ([7]; first compound 0.3162 µM): 0.562
- relative viability ([7]; first compound 1 µM): 0.367
- relative viability ([8]; first compound 0.01 µM): 1
- relative viability ([8]; first compound 0.03162 µM): 0.897
- relative viability ([8]; first compound 0.1 µM): 1.2
- relative viability ([8]; first compound 0.3162 µM): 1.19
- relative viability ([8]; first compound 1 µM): 0.924
- relative viability ([9]; first compound 0.01 µM): 0.449
- relative viability ([9]; first compound 0.03162 µM): 0.484
- relative viability ([9]; first compound 0.1 µM): 0.457
- relative viability ([9]; first compound 0.3162 µM): 0.498
- relative viability ([9]; first compound 1 µM): 0.406
- relative viability ([10]; first compound 0.01 µM): 0.809
- relative viability ([10]; first compound 0.03162 µM): 0.841
- relative viability ([10]; first compound 0.1 µM): 0.906
- relative viability ([10]; first compound 0.3162 µM): 0.909
- relative viability ([10]; first compound 1 µM): 0.653
- relative viability ([11]; first compound 0.01 µM): 0.714
- relative viability ([11]; first compound 0.03162 µM): 0.733
- relative viability ([11]; first compound 0.1 µM): 0.614
- relative viability ([11]; first compound 0.3162 µM): 0.35
- relative viability ([11]; first compound 1 µM): 0.242
- relative viability ([12]; first compound 0.01 µM): 1.09
- relative viability ([12]; first compound 0.03162 µM): 0.973
- relative viability ([12]; first compound 0.1 µM): 0.943
- relative viability ([12]; first compound 0.3162 µM): 1.19
- relative viability ([12]; first compound 1 µM): 0.881
- relative viability ([13]; first compound 0.01 µM): 0.946
- relative viability ([13]; first compound 0.03162 µM): 0.924
- relative viability ([13]; first compound 0.1 µM): 1.17
- relative viability ([13]; first compound 0.3162 µM): 1.14
- relative viability ([13]; first compound 1 µM): 0.93
- relative viability ([14]; first compound 0.01 µM): 0.748
- relative viability ([14]; first compound 0.03162 µM): 0.94
- relative viability ([14]; first compound 0.1 µM): 1.17
- relative viability ([14]; first compound 0.3162 µM): 0.919
- relative viability ([14]; first compound 1 µM): 0.798
- relative viability ([15]; first compound 0.01 µM): 0.896
- relative viability ([15]; first compound 0.03162 µM): 1.03
- relative viability ([15]; first compound 0.1 µM): 1.18
- relative viability ([15]; first compound 0.3162 µM): 0.844
- relative viability ([15]; first compound 1 µM): 0.554
- relative viability ([16]; first compound 0.01 µM): 1.27
- relative viability ([16]; first compound 0.03162 µM): 1.18
- relative viability ([16]; first compound 0.1 µM): 0.985
- relative viability ([16]; first compound 0.3162 µM): 1.53
- relative viability ([16]; first compound 1 µM): 0.532
- relative viability ([17]; first compound 0.01 µM): 1.02
- relative viability ([17]; first compound 0.03162 µM): 0.882
- relative viability ([17]; first compound 0.1 µM): 0.952
- relative viability ([17]; first compound 0.3162 µM): 1.12
- relative viability ([17]; first compound 1 µM): 0.693
- relative viability ([18]; first compound 0.01 µM): 1.06
- relative viability ([18]; first compound 0.03162 µM): 1.2
- relative viability ([18]; first compound 0.1 µM): 1.39
- relative viability ([18]; first compound 0.3162 µM): 1.13
- relative viability ([18]; first compound 1 µM): 1.02
- relative viability ([19]; first compound 0.03162 µM): 0.56
- relative viability ([19]; first compound 0.1 µM): 0.703
- relative viability ([19]; first compound 0.3162 µM): 0.674
- relative viability ([19]; first compound 1 µM): 0.62
- relative viability ([20]; first compound 0.01 µM): 0.664
- relative viability ([20]; first compound 0.03162 µM): 0.746
- relative viability ([20]; first compound 0.1 µM): 0.824
- relative viability ([20]; first compound 0.3162 µM): 0.885
- relative viability ([20]; first compound 1 µM): 0.737

Structure (SMILES): COc1nc(C)cnc1NS(=O)(=O)c1cccnc1-c1ccc(-c2nnco2)cc1 [Zibotentan] + C[C@@H](Oc1cc(-c2cnn(C3CCNCC3)c2)cnc1N)c1c(Cl)ccc(F)c1Cl [Crizotinib] (partner 1 µM)
- relative viability ([1]; first compound 0.08 µM): 0.879
- relative viability ([1]; first compound 0.253 µM): 0.841
- relative viability ([1]; first compound 0.8 µM): 0.928
- relative viability ([1]; first compound 2.53 µM): 1.05
- relative viability ([2]; first compound 0.08 µM): 1.03
- relative viability ([2]; first compound 0.253 µM): 0.815
- relative viability ([2]; first compound 0.8 µM): 0.938
- relative viability ([2]; first compound 2.53 µM): 0.925
- relative viability ([3]; first compound 0.08 µM): 0.774
- relative viability ([3]; first compound 0.253 µM): 0.572
- relative viability ([3]; first compound 0.8 µM): 0.475
- relative viability ([3]; first compound 2.53 µM): 0.499
- relative viability ([4]; first compound 0.08 µM): 0.821
- relative viability ([4]; first compound 0.253 µM): 0.512
- relative viability ([4]; first compound 0.8 µM): 0.874
- relative viability ([4]; first compound 2.53 µM): 0.895
- relative viability ([5]; first compound 0.08 µM): 0.918
- relative viability ([5]; first compound 0.253 µM): 0.826
- relative viability ([5]; first compound 0.8 µM): 0.82
- relative viability ([5]; first compound 2.53 µM): 0.848
- relative viability ([6]; first compound 0.08 µM): 0.803
- relative viability ([6]; first compound 0.253 µM): 0.724
- relative viability ([6]; first compound 0.8 µM): 0.989
- relative viability ([6]; first compound 2.53 µM): 1.02
- relative viability ([8]; first compound 0.08 µM): 1.07
- relative viability ([8]; first compound 0.253 µM): 1.07
- relative viability ([8]; first compound 0.8 µM): 1.12
- relative viability ([8]; first compound 2.53 µM): 0.974
- relative viability ([9]; first compound 0.08 µM): 0.581
- relative viability ([9]; first compound 0.8 µM): 0.665
- relative viability ([9]; first compound 2.53 µM): 0.617
- relative viability ([10]; first compound 0.08 µM): 0.924
- relative viability ([10]; first compound 0.253 µM): 0.853
- relative viability ([10]; first compound 0.8 µM): 0.977
- relative viability ([10]; first compound 2.53 µM): 0.989
- relative viability ([21]; first compound 0.08 µM): 0.772
- relative viability ([21]; first compound 0.253 µM): 0.599
- relative viability ([21]; first compound 0.8 µM): 0.982
- relative viability ([21]; first compound 2.53 µM): 0.898
- relative viability ([11]; first compound 0.08 µM): 1.05
- relative viability ([11]; first compound 0.8 µM): 1.01
- relative viability ([11]; first compound 2.53 µM): 0.925
- relative viability ([12]; first compound 0.08 µM): 0.838
- relative viability ([12]; first compound 0.253 µM): 0.65
- relative viability ([12]; first compound 0.8 µM): 0.68
- relative viability ([12]; first compound 2.53 µM): 0.758
- relative viability ([13]; first compound 0.08 µM): 0.537
- relative viability ([13]; first compound 0.253 µM): 0.527
- relative viability ([13]; first compound 0.8 µM): 0.645
- relative viability ([13]; first compound 2.53 µM): 0.617
- relative viability ([14]; first compound 0.08 µM): 0.605
- relative viability ([14]; first compound 0.253 µM): 0.475
- relative viability ([14]; first compound 0.8 µM): 0.72
- relative viability ([14]; first compound 2.53 µM): 0.631
- relative viability ([15]; first compound 0.08 µM): 0.962
- relative viability ([15]; first compound 0.253 µM): 0.823
- relative viability ([15]; first compound 0.8 µM): 0.837
- relative viability ([15]; first compound 2.53 µM): 0.862
- relative viability ([16]; first compound 0.08 µM): 1.2
- relative viability ([16]; first compound 0.8 µM): 1.01
- relative viability ([16]; first compound 2.53 µM): 0.903
- relative viability ([17]; first compound 0.08 µM): 1.04
- relative viability ([17]; first compound 0.253 µM): 0.871
- relative viability ([17]; first compound 0.8 µM): 0.837
- relative viability ([17]; first compound 2.53 µM): 0.967
- relative viability ([18]; first compound 0.08 µM): 0.808
- relative viability ([18]; first compound 0.253 µM): 0.699
- relative viability ([18]; first compound 0.8 µM): 0.724
- relative viability ([18]; first compound 2.53 µM): 0.724
- relative viability ([19]; first compound 0.08 µM): 0.667
- relative viability ([19]; first compound 0.253 µM): 0.553
- relative viability ([19]; first compound 0.8 µM): 0.602
- relative viability ([19]; first compound 2.53 µM): 0.712
- relative viability ([20]; first compound 0.08 µM): 0.742
- relative viability ([20]; first compound 0.253 µM): 0.717
- relative viability ([20]; first compound 0.8 µM): 0.758
- relative viability ([20]; first compound 2.53 µM): 0.729
